According to US20160279207A1, “TARGETING GDF6 AND BMP SIGNALING FOR ANTI-MELANOMA THERAPY” (University of Massachusetts, priority 2015, published 2016):
“Also recorded” adds a separate entry of the source.

Experiments:
[1] = system: A375 melanoma cells; test: Clonogenic growth (colony formation) assay; type: cell-based, human; conditions: A375-EMPTY vs A375-SMAD1DVD, 10 μM DMH1 in 0.1% DMSO
Description: For growth curves 50,000 live cells were seeded per well in a 6-well tissue culture plate on day 0. The numbers of live cells were calculated every day using an automated cell counter (Nexcelom Bioscience Cellometer Auto T4) following standard procedures. All assays were performed with technical replicates. For clonogenic assays, 3,000 live cells were seeded in a 10 cm tissue culture plate. […] ImageJ was used to quantify the number of colonies. In assays with DMH1 treatment, control or DMH1-containing media was replaced every other day. For soft agar assays a 0.5% bottom layer (1:1 with 1% agar and 2X DMEM with 20% FBS) and a 0.3% top layer (1:1 with 0.6% agar and 2× DMEM with 20% FBS) were used. 3,000 live cells per well of a 6-well tissue culture plate were added in the top layer. Media was added initially then replaced every 3 days. After 3 weeks, colonies were stained with nitroblue tetrazolium chloride overnight at 37° C. Once stained, individual wells were photographed, and ImageJ was used to count the number of colonies. All these assays were done in triplicate, and experiments were repeated at least twice. A representative image of each has been shown.

[2] = system: BMP signaling; test: Western blot of phospho-SMAD1 relative to total SMAD in DMH1-treated A375 cells; type: cell-based, human; conditions: 10 μM DMH1 vs control media
Description: Protein extracts were prepared as previously described (S. D. Epstein L B, Hunte-McDonough B, harris C A, Cytokines: A pratical approach (Balkwill F R., ed). 81-93 (1991)). Extracts were separated on 12% SDS-PAGE gels. Blots were probed with primary antibodies (GDF6 (Sigma PRS4691; 1:1000), phospho-SMAD1/5/8 (Cell Signaling 13820; 1:1000), SMAD1 (Cell Signaling 9743; 1:500), Total SMAD1/5/8 (Santa Cruz sc-6031-R; 1:1000), FLAG (Sigma F3165, 1:2000), GAPDH (Abcam 8245; 1:2000)) overnight at 4° C., washed five times in TBS plus 0.1% Tween (TBST) and then incubated with the appropriate HRP-conjugated secondary antibody (Jackson Labs) for 1 hour at room temperature. Membranes were washed five times in TBST and visualized on autoradiography film after incubating with ECL reagent (Supersignal West Pico or Supersignal West Femto; Thermo Scientific).

[3] = system: SKMEL28 melanoma cells; test: Growth curves of SKMEL28 cells by direct cell counting; type: cell-based, human; conditions: DMH1 vs control
Description: (§1) For growth curves 50,000 live cells were seeded per well in a 6-well tissue culture plate on day 0. The numbers of live cells were calculated every day using an automated cell counter (Nexcelom Bioscience Cellometer Auto T4) following standard procedures. All assays were performed with technical replicates. For clonogenic assays, 3,000 live cells were seeded in a 10 cm tissue culture plate. After 3 weeks, colonies were fixed and stained using bromophenol blue in acetone. ImageJ was used to quantify the number of colonies. In assays with DMH1 treatment, control or DMH1-containing media was replaced every other day. For soft agar assays a 0.5% bottom layer (1:1 with 1% agar and 2X DMEM with 20% FBS) and a 0.3% top layer (1:1 with 0.6% agar and 2× DMEM with 20% FBS) were used. 3,000 live cells per well of a 6-well tissue culture plate were added in the top layer. Media was added initially then replaced every 3 days. After 3 weeks, colonies were stained with nitroblue tetrazolium chloride overnight at 37° C. Once stained, individual wells were photographed, and ImageJ was used to count the number of colonies. All these assays were done in triplicate, and experiments were repeated at least twice. A representative image of each has been shown.

[4] = system: A375 melanoma cells; test: Growth curves of A375 cells by direct cell counting; type: cell-based, human; conditions: 10 μM DMH1 vs control
Description: as §1

[5] = system: A375 melanoma cells; test: A375 melanoma xenograft in nude mice, tumor volume; type: in vivo, mouse; conditions: 25 mg/kg DMH1 intraperitoneally every other day, A375 cells in BALB/c nu/nu mice
Description: An art-accepted model to test for an agent's effects on melanoma is that of using immunocompromised (“nude”) mice which are then injected subcutaneously with melanoma cells, and then concomitant with injection of the cells, sometime after injection, and/or after tumor establishment, the test agent is appropriately administered (e.g., intravenously, peritoneally, orally, etc.). Control and treated animals are monitored in part for tumor growth, tumor stabilization, and tumor regression (see for example, Yang et al. 2010. Cancer Res., 70:5518-5527 and Bollag et al. 2010. Nature. 467:596-599).
All animal protocols were approved by the UMMS Institution Animal Care and Use Committee (A-2016, A-2171). Mice were randomly allocated to individual experimental groups. No blinding was done as animal groups were identified by tagging and cage labeling. Animals were excluded, according to pre-established criteria, if the tumor volume reached >1,000 mm^3; if tumor size or location affected the mobility or general health of animal, the animal was euthanized and excluded from the experiment or the complete experiment was terminated. A375 cells stably expressing an EGFP or GDF6 or SMAD1 shRNA and/or empty vector or GDF6-expressing vector or SMAD1DVD-overexpressing vector were subcutaneously injected into the flanks of 6-8-week-old BALB/c nu/nu female mice (Taconic Farms) to produce orthotopic primary tumor. Primary tumor growth was monitored every 3 days with calipers, and the tumor volume was calculated as described previously (C. Gazin, N. Wajapeyee, S. Gobeil, C. M. Virbasius, M. R. Green, An elaborate pathway required for Ras-mediated epigenetic silencing. Nature 449, 1073-1077 (2007)). For GDF6 knockdown, SMAD1 knockdown and epistasis experiments, 1×10^7 live cells were injected. For GDF6 overexpression experiments, 1×10^6 live cells were injected. For GDF6 overexpression and GDF6 knockdowns, a representative of two independent experiments (n=3 animals per experiment) is shown. For DMH1 drug experiments, 1×10^6 live A375 cells were subcutaneously injected in the flanks of BALB/c nu/nu female mice. Beginning on the day cells were injected, mice were injected intraperitoneally with vehicle 12.5% 2-hydroxypropyl-β-cyclodextrin or 25 mg/kg DMH1 in vehicle every other day. The growth of the tumor was monitored as described above. This experiment was repeated twice and the weighted average of both experiments (n=8 total) is represented.

CC(C)Oc1ccc(-c2cnc3c(-c4ccnc5ccccc45)cnn3c2)cc1 [DMH1]
colony formation of DMH1-treated cells expressing SMAD1DVD [1]: reversed by SMAD1DVD
level of phospho-SMAD1 relative to total SMAD protein [2]: reduced level of phospho-SMAD1 relative to total SMAD protein
SKMEL28 melanoma cell growth (growth curves) [3]: grew more slowly than did control cells
A375 melanoma cell growth (growth curves) [4]: grew more slowly than did control cells; also recorded: inhibits A375 melanoma cell growth
tumor growth (tumor volume over time), DMH1 vs vehicle [5]: smaller tumors arose and grew more slowly; also recorded: decreased tumorigenicity; also recorded: abrogates melanoma growth in mouse xenografts in vivo
